Reference: patent US5792780A, “Azole compounds, their production and use” (Takeda Chemical Industries, Ltd., priority 1993, dated 1998)

Experiments:
[1] = test system: Aspergillus fumigatus IFO 6344; experiment: growth inhibition zone, paper disc agar diffusion; format: cell-based; settings: IFO6344, 48 h, Medium A, 1000 μg/ml, 28° C., two days, read-out: Diameter of growth inhibition zone
Description: (§1) Evaluation of the antifungal activities of the compound of the present invention was conducted by the following method: a sheet of filter paper disc (manufactured by Toyo Seisakusho, 8 mm in diameter) soaked in a 1000 μg/ml solution of a compound of the present invention in methanol was placed on an agar plate containing various fungi, which was incubated at 28° C. for two days, and the diameter of the growth inhibition zone around the filter paper disc was measured. The following culture media were used:
(§2) A: yeast nitrogen base agar medium (pH 7.0)
(§3) B: peptone-yeast extract-glucose agar medium (pH 7.0)

[2] = test system: Aspergillus niger IFO 4066; experiment: growth inhibition zone, paper disc agar diffusion; format: cell-based; settings: IFO4066, 48 h, Medium A, 1000 μg/ml, 28° C., two days, read-out: Diameter of growth inhibition zone
Description: as §1, §2, §3

[3] = test system: Candida albicans IFO 0583; experiment: growth inhibition zone, paper disc agar diffusion; format: cell-based; settings: IFO0583, 48 h, Table 5, Medium A, 1000 μg/ml, 28° C., two days, read-out: Diameter of growth inhibition zone
Description: as §1, §2, §3

Candida utilis IFO 0619 = experiment: growth inhibition zone, paper disc agar diffusion; format: cell-based; settings: Williopsis jadinii, IFO0619, 48 h, Medium A, 1000 μg/ml, 28° C., two days, read-out: Diameter of growth inhibition zone
Description: as §1, §2, §3

[4] = test system: Cryptococcus neoformans IFO 0410; experiment: growth inhibition zone, paper disc agar diffusion; format: cell-based; settings: IFO0410, 48 h, Medium A, 1000 μg/ml, 28° C., two days, read-out: Diameter of growth inhibition zone
Description: as §1, §2, §3

[5] = test system: Microsporum gypseum IFO 6076; experiment: growth inhibition zone, paper disc agar diffusion; format: cell-based; settings: Nannizzia gypsea, IFO6076, 48 h, Medium B, 1000 μg/ml, 28° C., two days, read-out: Diameter of growth inhibition zone
Description: as §1, §2, §3

[6] = test system: Trichophyton mentagrophytes IFO 7522; experiment: growth inhibition zone, paper disc agar diffusion; format: cell-based; settings: IFO7522, 48 h, Medium B, 1000 μg/ml, 28° C., two days, read-out: Diameter of growth inhibition zone
Description: as §1, §2, §3

[7] = test system: Trichophyton rubrum IFO 5467; experiment: growth inhibition zone, paper disc agar diffusion; format: cell-based; settings: IFO5467, 48 h, Medium B, 1000 μg/ml, 28° C., two days, read-out: Diameter of growth inhibition zone
Description: as §1, §2, §3

Candida albicans TA = experiment: protective effect against experimental infection in mice (survival rate 7 days after infection); format: in vivo, Crj:CDF1 mice; settings: po, 168 h, Table 7, P.O. once immediately after infection, 0.2% CMC, survival 7 days after infection
Description: (§4) Test Method: Five-week-old Crj:CDF1 mice were inoculated with the minimum lethal dose of Candida albicans TA intravenously. The test compound was suspended in a solution of 0.2% or 0.5% sodium carboxymethylcellulose (CMC). The suspension was administered orally once immediately after infection. The activity was expressed in terms of ED50 values calculated by the Reed and Muench method from the survival rate 7 days after infection.
as §4, with “of” for “of 0.2% or”

SMILES | zone of inhibition at 1000 µg/mL [1] [mm] | zone of inhibition at 1000 µg/mL [2] [mm] | zone of inhibition at 1000 µg/mL [3] [mm] | zone of inhibition at 1000 µg/mL (Candida utilis IFO 0619) [mm] | zone of inhibition at 1000 µg/mL [4] [mm] | zone of inhibition at 1000 µg/mL [5] [mm] | zone of inhibition at 1000 µg/mL [6] [mm] | zone of inhibition at 1000 µg/mL [7] [mm] | ED50 (Candida albicans TA) [mg/kg]
C[C@@H](N1CCN(c2ccc(C(F)(F)F)cc2)C1=O)[C@](O)(Cn1cncn1)c1ccc(F)cc1F [Compound 4, 1-[(1R,2R)-2-(2,4-difluorophenyl)-2-hydroxy-1-methyl-3-(1H-1,2,4-triazol-1-yl)propyl]-3-(4-trifluoromethylphenyl)-2-imidazolidinone] | 34 | 26 | 41 | 31 | 29 | 42 | 39 | 43 | 0.65
C[C@@H](N1CCN(c2ccc(OC(F)(F)F)cc2)C1=O)[C@](O)(Cn1cncn1)c1ccc(F)cc1F [Compound 1, 1-[(1R,2R)-2-(2,4-difluorophenyl)-2-hydroxy-1-methyl-3-(1H-1,2,4-triazol-1-yl)propyl]-3-(4-trifluoromethoxyphenyl)-2-imidazolidinone] | 31 | 24 | 36 | 25 | 27 | 49 | 48 | 47 | 1.4
C[C@@H](N1CCN(c2ccc(F)cc2F)C1=O)[C@](O)(Cn1cncn1)c1ccc(F)cc1F [Compound 2, 1-[(1R,2R)-2-(2,4-difluorophenyl)-2-hydroxy-1-methyl-3-(1H-1,2,4-triazol-1-yl)propyl]-3-(2,4-difluorophenyl)-2-imidazolidinone] | 30 | 27 | 45 | 29 | 31 | 41 | 40 | 50 | 
